Bridge positions count the residues as written; N and C are the ends. Peptide text beside a SMILES is read from it.
How the values were obtained:
IR wild-type (WT) = target: T1, IR wild-type (WT) (Homo sapiens, UniProt P06213); assay: IR activation (auto-phosphorylation) assay in 293 FT cells expressing IR WT; assay type: cell-based
T1 construct: expressed in transfected cells; host or cells: 293 FT cells
Method: The insulin receptor signaling assay was performed as described earlier with some modifications. For the activation assay, the short isoform of human IR in pCS2-MYC was used as described previously. Plasmid transfections into 293 FT cells were performed with Lipofectamin™ 2000 (Invitrogen).
The cells were incubated with the lysis buffer B [50 mM Hepes pH 7.4, 150 mM NaCl, 10% Glycerol, 1% Triton X-100, 1 mM EDTA, 100 mM sodium fluoride, 2 mM sodium orthovanadate, 20 mM sodium pyrophosphate, 0.5 mM dithiothreitol (DTT), 2 mM phenylmethylsulfonyl fluoride (PMSF)] supplemented with complete Protease Inhibitor Cocktail (Roche), PhosSTOP (Sigma), and 25 U/ml turbo nuclease (Accelagen) on ice for 1 hr. After centrifuge at 20,817 g at 4° C. for 10 min, the concentrations of cell lysate were measured using Micro BCA Protein Assay Kit (Thermo Scientific). About 50-60 μg total proteins were analyzed by SDS-PAGE and quantitative Western blotting. The following antibodies were purchased from commercial sources: Anti-IR-pY1150/1151 (WB, 1:1000; 19H6; labeled as pY IR, Cat. #3024), anti-AKT (WB, 1:1000; 40D4, Cat. #2920), anti-pS473 AKT (WB, 1:1000; D9E, Cat. #4060), anti-ERK1/2 (WB, 1:1000; L34F12, Cat. #4696), anti-pERK1/2 (WB, […]; 197G2, Cat. #4377), anti-IRS1-pS616 (WB, 1:1000; C15H5, Cell Signaling, Cat. #3203); anti-IRS1 (WB, 1:1000; A301-158A, Bethyl Laboratory); anti-IR (WB, 1:500, CT-3, Santa Cruz; labeled as IR for primary hepatocytes and MEFs, Cat. #sc-57342); anti-IR (WB, 1:1000; EPR23566-103; labeled as IR for FIG. 31, ab278100, Abcam); anti-Myc (WB, 1:2000; 9E10, Cat. #11667149001, Roche; labeled as IR for 293 FT cells). For quantitative western blots, anti-rabbit immunoglobulin G (IgG) (H+L) (WB, 1:5000; Dylight 800 conjugates, Cat. #5151) and anti-mouse IgG (H+L) (WB, 1:5000; Dylight 680 conjugates, Cat. #5470) (Cell Signaling) were used as secondary antibodies. The membranes were scanned with the Odyssey Infrared Imaging System (Li—COR, Lincoln, NE).

IR R14A = target: T2, IR R14A (Homo sapiens, UniProt P06213, R41A); assay: IR activation assay in 293 FT cells, IR R14A mutant; assay type: cell-based; conditions: 10 min
T2 construct: expressed in transfected cells; host or cells: 293 FT cells
T2 sequence (P06213 28-1370 isoform P06213-2 R41A limits assumed): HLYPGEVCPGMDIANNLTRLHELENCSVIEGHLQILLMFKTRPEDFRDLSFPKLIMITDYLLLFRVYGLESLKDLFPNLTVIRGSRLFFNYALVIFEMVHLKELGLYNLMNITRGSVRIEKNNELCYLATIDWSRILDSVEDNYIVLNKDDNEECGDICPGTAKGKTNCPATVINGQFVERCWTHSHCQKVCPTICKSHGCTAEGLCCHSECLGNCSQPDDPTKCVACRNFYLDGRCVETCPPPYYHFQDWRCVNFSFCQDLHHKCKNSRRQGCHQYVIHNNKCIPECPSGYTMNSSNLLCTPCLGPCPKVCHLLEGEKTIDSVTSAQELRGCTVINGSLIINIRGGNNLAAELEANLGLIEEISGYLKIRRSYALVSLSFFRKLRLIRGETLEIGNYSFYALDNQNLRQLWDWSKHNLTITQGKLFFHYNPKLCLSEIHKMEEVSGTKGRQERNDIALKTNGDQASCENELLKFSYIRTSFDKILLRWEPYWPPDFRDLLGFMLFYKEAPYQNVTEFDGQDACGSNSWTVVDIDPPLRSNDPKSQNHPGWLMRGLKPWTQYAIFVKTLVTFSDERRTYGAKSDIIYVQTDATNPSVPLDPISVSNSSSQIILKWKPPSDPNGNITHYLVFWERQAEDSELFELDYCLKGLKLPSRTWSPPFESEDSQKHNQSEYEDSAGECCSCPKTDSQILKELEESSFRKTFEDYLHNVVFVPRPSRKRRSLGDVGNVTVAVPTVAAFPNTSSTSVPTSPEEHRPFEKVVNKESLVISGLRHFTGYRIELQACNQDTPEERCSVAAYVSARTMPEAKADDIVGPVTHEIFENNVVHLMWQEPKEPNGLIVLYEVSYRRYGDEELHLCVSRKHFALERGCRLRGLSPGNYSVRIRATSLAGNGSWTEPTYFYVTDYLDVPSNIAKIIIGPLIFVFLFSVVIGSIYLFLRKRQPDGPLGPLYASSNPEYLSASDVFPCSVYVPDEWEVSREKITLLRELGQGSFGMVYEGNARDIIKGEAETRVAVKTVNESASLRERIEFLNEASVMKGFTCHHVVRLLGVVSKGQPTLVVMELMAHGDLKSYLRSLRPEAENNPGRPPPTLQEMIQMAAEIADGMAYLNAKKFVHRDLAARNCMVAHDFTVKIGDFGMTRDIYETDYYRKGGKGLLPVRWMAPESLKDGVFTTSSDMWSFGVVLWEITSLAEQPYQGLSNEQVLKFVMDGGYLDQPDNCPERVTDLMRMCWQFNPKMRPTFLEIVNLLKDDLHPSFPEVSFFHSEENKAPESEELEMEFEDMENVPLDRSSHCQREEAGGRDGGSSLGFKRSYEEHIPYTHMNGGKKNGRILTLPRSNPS
T2 sequence (P06213 763-1382 partner limits assumed): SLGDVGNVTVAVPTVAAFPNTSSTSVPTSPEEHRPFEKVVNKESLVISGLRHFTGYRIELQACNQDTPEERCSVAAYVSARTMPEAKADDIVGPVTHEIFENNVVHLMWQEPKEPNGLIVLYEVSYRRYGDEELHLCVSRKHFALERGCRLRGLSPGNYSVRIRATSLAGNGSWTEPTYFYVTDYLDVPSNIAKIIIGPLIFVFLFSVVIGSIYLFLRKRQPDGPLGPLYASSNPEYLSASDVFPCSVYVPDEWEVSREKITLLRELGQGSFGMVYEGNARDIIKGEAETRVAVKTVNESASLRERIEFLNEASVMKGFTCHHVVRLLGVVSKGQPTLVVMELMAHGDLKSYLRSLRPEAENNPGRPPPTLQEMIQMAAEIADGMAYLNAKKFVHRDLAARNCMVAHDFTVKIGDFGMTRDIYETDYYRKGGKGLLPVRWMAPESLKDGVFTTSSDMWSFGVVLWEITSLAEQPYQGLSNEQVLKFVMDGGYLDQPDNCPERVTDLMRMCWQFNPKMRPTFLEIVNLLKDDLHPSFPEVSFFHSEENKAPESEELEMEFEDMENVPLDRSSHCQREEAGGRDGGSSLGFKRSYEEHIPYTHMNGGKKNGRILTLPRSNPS

SREBP1 = assay: Immunofluorescence assay for SREBP1 translocation in primary hepatocytes; assay type: cell-based, mouse; conditions: 100 nM for 30 min
Method: Primary hepatocytes were as described in the primary hepatocyte isolation section. […] Cells were fixed with 4% paraformaldehyde for 10 min. The fixed cells were incubated with PBS for 30 min and 3% BSA in PBS with 0.1% Triton X-100 (0.1% PBST) for 1 hr., and then treated with anti-SREBP1 antibodies (20B12, Millipore, Cat. #MABS1987, 1:200) in 3% BSA in 0.1% PBST at 4° C. overnight. After being washed, cells were incubated with secondary antibodies (Alexa Fluor 488 goat anti-rabbit, Invitrogen, Cat. #A11008, 1:200) for 1 hr. Cells were washed and mounted on microscope slides in ProLong Gold Antifade reagent with DAPI (Invitrogen). Images were acquired as a series of 0.2 μm stacks with a Leica Thunder Imager (Leica Microsystems Inc.). Raw images were deconvolved using LAS X Software (Leica Microsystems Inc.). The nuclear edges and the nuclear SREBP1 signal were defined with Image J. Identical exposure times and magnifications were used for all comparative analyses.

C2C12 cells = assay: MTT assay in C2C12 cells; assay type: cell-based
Method: To examine the function of […] on cell viability and growth, an MTT assay was performed in C2C12 cells.

full-length IGF1R = assay: In vitro competition assay for full-length IGF1R; assay type: binding
T47D [1] = assay: IR signaling in cancer cells, T47D; assay type: cell-based; conditions: 10, 100 or 300 nM for 10 minutes
T47D [2] = assay: Cancer cell proliferation, T47D; assay type: cell-based
[3] = test system: upstream MAPK pathway proteins (e.g., SOS1, SHP2); assay: Quantitative phosphoproteomics of skeletal muscle; assay type: in vivo, mice; conditions: compared to insulin
Method: FIG. 6A illustrates sequences of S597 and analogs. […] Liver (3 min) and skeletal muscle (5 min) were collected after injection. Quantification of data shown in Mean±SD. […] Two-tailed student t-test; *p<0.05; **p<0.01; ***p<0.001; ****p<0.0001 (PBS set as the control); ††p<0.01 and ††††p<0.0001. […] Compared to insulin-treated samples, blue and red sites indicate downregulation and upregulation of phosphorylation by S597, respectively.

IR = IR (Homo sapiens, UniProt P06213); conditions: cited from earlier work
Sequence of IR (P06213 28-758 limits assumed): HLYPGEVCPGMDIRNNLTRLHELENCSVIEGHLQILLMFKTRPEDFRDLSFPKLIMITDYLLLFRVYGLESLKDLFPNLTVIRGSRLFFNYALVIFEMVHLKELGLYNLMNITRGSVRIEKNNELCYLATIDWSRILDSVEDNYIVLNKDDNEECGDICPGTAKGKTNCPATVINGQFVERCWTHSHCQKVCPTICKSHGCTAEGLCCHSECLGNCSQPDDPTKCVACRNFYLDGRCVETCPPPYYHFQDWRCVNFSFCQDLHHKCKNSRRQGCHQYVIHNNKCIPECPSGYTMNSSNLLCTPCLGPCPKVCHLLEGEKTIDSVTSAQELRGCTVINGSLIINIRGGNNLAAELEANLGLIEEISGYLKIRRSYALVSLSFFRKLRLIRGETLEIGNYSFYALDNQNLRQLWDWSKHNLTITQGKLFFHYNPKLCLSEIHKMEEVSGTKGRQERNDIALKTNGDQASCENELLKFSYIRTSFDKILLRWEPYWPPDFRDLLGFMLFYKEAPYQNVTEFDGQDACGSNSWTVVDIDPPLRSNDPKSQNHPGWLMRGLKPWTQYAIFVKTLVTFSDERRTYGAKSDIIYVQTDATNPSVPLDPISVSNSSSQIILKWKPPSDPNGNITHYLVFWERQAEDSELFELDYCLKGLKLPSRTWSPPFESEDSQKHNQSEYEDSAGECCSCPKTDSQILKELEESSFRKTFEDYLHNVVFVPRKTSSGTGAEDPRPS
Sequence of IR (P06213 763-1382 partner limits assumed): as the sequence (P06213 763-1382 partner limits assumed) above

IR D707A = IR D707A (Homo sapiens, UniProt P06213, D734A); assay: IR activation assay in 293 FT cells, IR D707A mutant; assay type: cell-based; parameters: expressed in transfected cells; host or cells: 293 FT cells; conditions: 10 min
Sequence of IR D707A (P06213 28-1370 isoform P06213-2 D734A limits assumed): as the sequence (P06213 28-1370 isoform P06213-2 R41A limits assumed) above, with A14R, D707A counted along it
Sequence of IR D707A (P06213 763-1382 partner limits assumed): as the sequence (P06213 763-1382 partner limits assumed) above

T1 sequence (P06213 28-1370 isoform P06213-2 limits assumed): as the sequence (P06213 28-1370 isoform P06213-2 R41A limits assumed) above, with A14R counted along it
T1 sequence (P06213 763-1382 partner limits assumed): as the sequence (P06213 763-1382 partner limits assumed) above

CC[C@H](C)[C@H](NC(=O)[C@H](CCC(N)=O)NC(=O)[C@H](C)NC(=O)[C@H](Cc1c[nH]c2ccccc12)NC(=O)[C@H](CCC(=O)O)NC(=O)[C@H](CCC(=O)O)NC(=O)[C@H](CCC(=O)O)NC(=O)[C@H](CC(C)C)NC(=O)[C@H](CO)NC(C)=O)C(=O)N[C@@H](CCC(=O)O)C(=O)N[C@H]1CSSC[C@@H](C(=O)N2CCC[C@H]2C(=O)N[C@@H](CO)C(=O)N[C@@H](CCC(=O)O)C(=O)N[C@@H](CO)C(=O)N[C@@H](Cc2ccccc2)C(=O)N[C@@H](Cc2ccc(O)cc2)C(=O)N[C@@H](CC(=O)O)C(=O)N[C@@H](Cc2c[nH]c3ccccc23)C(=O)N[C@@H](Cc2ccccc2)C(=O)N[C@@H](CCC(=O)O)C(=O)N[C@@H](CCCNC(=N)N)C(=O)N[C@@H](CCC(N)=O)C(=O)N[C@@H](CC(C)C)C(N)=O)NC(=O)CNC(=O)[C@H](CCCNC(=N)N)NC(=O)CNC(=O)[C@H](Cc2ccc(O)cc2)NC(=O)[C@H](C(C)C)NC(=O)[C@H](CCC(=O)O)NC1=O [S597] (Ac-SLEEEWAQIECEVYGRGCPSESFYDWFERQL-NH2; disulfide 11-18)
IR activation (auto-phosphorylation of IR, pY IR) (IR wild-type (WT); 293 FT cells expressing IR WT, 10 nM for 10 min): as efficiently as insulin
difference between the A and B isoforms of IR activation (IR wild-type (WT); 293 FT cells expressing IR-A or IR-B, 10 min): no significant difference
IR activation (pY IR) (IR R14A): fully activated
nuclear translocation of SREBP1 (SREBP1): stimulated to the same level
cell viability and growth (C2C12 cells): does not promote cell proliferation as efficiently as insulin
binding to IGF1R (full-length IGF1R): do not bind
IR signaling (T47D [1]): failed to activate
cell proliferation (T47D [2]): did not promote
phosphorylation levels of upstream MAPK pathway proteins (e.g., SOS1, SHP2) [3]: significantly reduced
affinity for the IR (IR): sub-micromolar
IR activation (pY IR) (IR D707A): fully activated
